Assay results as given in patent publication US6384065B1, “Spiro compounds or salts thereof and preventives/remedies for autoimmune diseases and AP-1 inhibitors containing the same” (Toyama Chemical Co., Ltd., priority 1998, dated 2002).

Legend:
[1] = system: transcription factor AP-1; test: Luciferase assay (TPA-stimulated p(TRE)5TK-Luc reporter transfectant); type: cell-based; settings: Mus musculus, TPA stimulation 16 hours, Luc activity, read-out: Inhibition rate (%); for inhibition at 30 µg/mL: 30 μg/ml test compound; for inhibition at 100 µg/mL: 100 μg/ml test compound
Description: (§1) A reporter plasmid was prepared according to the method of R. I. Scheinman et al. [Mol. Cell. Biol., Vol. 15, Pages 943-953 (1995)]. That is, a plasmid p(TRE)5TK-Luc was constructed by connecting a promoter of thymidine kinase (TK) at an upstream site of luciferase (Luc) gene which is a reporter gene and a 5-times repeated TRE sequence at a further upstream site thereof. The plasmid was co-transfected simultaneously with p3′SS plasmid (prepared by Stratagene Co.) by the electrotranspolation method onto mouse 3T3 fibroblast (ATCC: CCL-163) cultured in a Dulbecco's modified Eagle's medium (DMEM) containing 10% fetal calf serum (FCS). Then the cells were cultured in DMEM containing 10% FCS and 100 μg/ml of Hygromycin B. Using the expression of Hygromycin-resistant gene contained in p3′SS as an indicator, cell strains of the transfectant into which the objective plasmid had been introduced stably were selected. Furthermore in the test mentioned below, cell strains showing expression of Luc gene under stimulation of 12-O-tetradecanoylphorbol 13-acetate (TPA, prepared by Sigma Co.) were used, and DMEM containing 10% FCS and 100 μg/ml of Hygromycin B was used for the culture of cells.
The cells prepared above were suspended in culture medium, and plated 96 well-plate at 1×10^4 cells/0.1 ml. After culturing it overnight, 50 μl of test compounds solution and 40 μl of culture medium were added, and incubated. After one hour 10 μl of 200 ng/ml TPA solution was added and the culture was continued for an additional 16 hours to stimulate the cells. The end of cluture, the cells were recovered, and cell lysis solutions were obtained. The Luc activity of the cell lysates was measured with a chemilluminescent detection kit (Pica Gene; manufactured by Toyo Ink Co.). The suppressive effect of each test compound could be assessed as a decrease of Luc activity, and the inhibition rate (%) was calculated according to the following formula:
Inhibition rate (%)=(1−Luc activity of cells to which the compound is added/Luc activity of cells to which the compound is not added)×100
(§2) The compounds of Example No. 1, 6(3), 6(5), 13, 15, 17, 18(1), 18(8), 20(1) and 20(2) were converted to sodium salts according to the method of Example 42, and then used for the assay.

mouse 3T3 fibroblast = test: XTT assay (cytotoxicity test); type: cell-based; settings: 16 hours culture, T/C %
Description: as §1
The same culture plate as above was prepared, and test compound and TPA were added under the same conditions as above, after which a culture was carried out for 16 hours. The end of cluture, XTT reagent prepared according to the method of D. A. Scudievo [Cancer Res., Vol. 48, Pages 4827-4833 (1988)] was added and made to react for a prescribed period of time. Then, the amount of formazan formed by alive cells was analyzed by measuring absorbance at 450 nm using a micro plate reader. In this test, a decrease in absorbance is observed when the test compounds show a cytotoxicitic or a growth inhibitory activity. Cell viability (T/C %) was determined according to the following formula:
Cell Viability Rate (T/C %)=(Absorbance of well to which compound is added/Absorbance of well to which the compound was not added)×100
as §2

[2] = system: type II collagen-induced arthritis; test: Type II collagen-induced arthritis in mice (arthritis score, joint-bone destruction score); type: in vivo, DBA/1J mice; settings: 100 mg/kg orally once every day from day 21 to day 35, mean
Description: The compound of Example 20 (1) was tested for the effect on type II collagen-induced arthritis, using 8 weeks old, male DBA/1J mice (Japan Charles River). Emulsion was prepared by mixing an equal volume of bovine type II collagen (prepared by Koken) in 0.1N acetic acid (2 mg/ml) and Freund's complete adjuvant (prepared by Nacalai Tesque). Arthritis was induced by intradermal injection of 0.2 ml (the quantity of antigen: 200 μg/head) of the emulsion into the skin of the tail root twice (day 0 and day 21). The test compound was suspended in 0.5% solution of methyl cellulose, and 100 mg/kg was orally administered once every day from day 21 to day 35. […] Severity of the arthritis was scored 0: no change, 1: only one or two swelling of the joints or slight swelling of the ankle or toes, 2: swelling and/or rubor in further joints, 3: extensive swelling of whole paw, and the maximum possible score for arthritis was 12 points. As to the severity of destruction of joints and bones, X ray photographs of four paws were taken (Softex), and severity of destruction in the second to fifth articulationes interphalangeae, first to fifth articulationes metacarpophalangeae and metatarsophalangeae, and calcaneus was scored by 0 or 1 in accordance with presence or absence of destruction, and the severity of destruction in the carpus and tarsal was scored by 0 to 3. […]

CC(C)c1ccc(OC2CCC3(CC2)SC(C)(C)[C@H](C(=O)O)N3C(=O)c2ccccc2)cc1 (stereo partly drawn) [20 (1), (3S)-4-Benzoyl-8-(4-isopropylphenoxy)-2,2-dimethyl-1-thia-4-azaspiro[4.5]decane-3-carboxylic acid]
inhibition at 30 µg/mL [1]: 72%
Cell viability (%) (mouse 3T3 fibroblast; 30 μg/ml test compound): 98%
Joint-bone destruction score ([2]; X ray of four paws, control 20 ± 3): 14 ± 3
Arthritis score ([2]; maximum score 12, control 10 ± 1): 8 ± 1

CC(C)c1ccc(OC2CCC3(CC2)SC(C)(C)[C@@H](C(=O)O)N3C(=O)c2ccccc2)cc1 (stereo partly drawn) [20 (2), (3R)-4-Benzoyl-8-(4-isopropylphenoxy)-2,2-dimethyl-1-thia-4-azaspiro[4.5]decane-3-carboxylic acid]
inhibition at 100 µg/mL [1]: 93%
Cell viability (%) (mouse 3T3 fibroblast; 100 μg/ml test compound): 92%

CC(C)c1ccc(OC2CCC3(CC2)SC[C@@H](C(=O)O)N3C(=O)c2cnc3ccccc3c2)cc1 (stereo partly drawn) [41 (2), (3R)-8-(4-Isopropylphenoxy)-4-(3-quinolylcarbonyl)-1-thia-4-azaspiro[4.5]decane-3-carboxylic acid]
inhibition at 100 µg/mL [1]: 94%
Cell viability (%) (mouse 3T3 fibroblast; 100 μg/ml test compound): 71%

Cc1nc(C(=O)N2[C@H](C(=O)O)CSC23CCC(Oc2ccc(C(C)C)cc2)CC3)cs1 (stereo partly drawn) [41 (3), (3R)-8-(4-Isopropylphenoxy)-4-[(2-methyl-1,3-thiazol-4-yl)carbonyl]-1-thia-4-azaspiro[4.5]decane-3-carboxylic acid]
inhibition at 100 µg/mL [1]: 80%
Cell viability (%) (mouse 3T3 fibroblast; 100 μg/ml test compound): 97%

CC(C)c1ccc(OC2CCC3(CC2)SC[C@@H](C(=O)O)N3C(=O)c2cnccn2)cc1 (stereo partly drawn) [41 (4), (3R)-8-(4-Isopropylphenoxy)-4-(2-pyrazinylcarbonyl)-1-thia-4-azaspiro[4.5]decane-3-carboxylic acid]
inhibition at 100 µg/mL [1]: 96%
Cell viability (%) (mouse 3T3 fibroblast; 100 μg/ml test compound): 82%

COc1ccc(C(=O)N2[C@H](C(=O)O)CSC23CCC(Oc2ccc(C(C)C)cc2)CC3)cc1 (stereo partly drawn) [41 (5), (3R)-8-(4-Isopropylphenoxy)-4-(4-methoxybenzoyl)-1-thia-4-azaspiro[4.5]decane-3-carboxylic acid]
inhibition at 100 µg/mL [1]: 94%
Cell viability (%) (mouse 3T3 fibroblast; 100 μg/ml test compound): 90%

CCN(CC)C(=O)c1ccc(C(=O)N2[C@H](C(=O)O)CSC23CCC(Oc2ccc(C(C)C)cc2)CC3)cc1 (stereo partly drawn) [41 (6), (3R)-4-{4-[(Diethylamino)carbonyl]benzoyl}-8-(4-isopropylphenoxy)-1-thia-4-azaspiro[4.5]decane-3-carboxylic acid]
inhibition at 100 µg/mL [1]: 49%
Cell viability (%) (mouse 3T3 fibroblast; 100 μg/ml test compound): 97%

CCOC(=O)[C@@H]1CSC2(CCC(Oc3ccc(C(C)C)cc3)CC2)N1C(=O)c1ccccc1 (stereo partly drawn) [Example 21, ethyl (3R)-4-benzoyl-8-(4-isopropylphenoxy)-1-thia-4-azaspiro[4.5]decane-3-carboxylate]
inhibition at 30 µg/mL [1]: 28%
Cell viability (%) (mouse 3T3 fibroblast; 30 μg/ml test compound): 74%

CC(C)c1ccc(OC2CCC3(CC2)SC[C@@H](C(=O)NCCC(=O)O)N3C(=O)c2ccccc2)cc1 (stereo partly drawn) [Example 29, 3-({[(3R)-4-benzoyl-8-(4-isopropylphenoxy)-1-thia-4-azaspiro[4.5]-decan-3-yl]carbonyl}amino)-propionic acid]
inhibition at 100 µg/mL [1]: 92%
Cell viability (%) (mouse 3T3 fibroblast; 100 μg/ml test compound): 110%

CC(C)c1ccc(OC2CCC3(CC2)SC[C@@H](C(=O)O)N3C(=O)c2ccc[nH]2)cc1 (stereo partly drawn) [Example 40, (3R)-8-(4-isopropylphenoxy)-4-(1H-2-pyrrolylcarbonyl)-1-thia-4-azaspiro[4.5]decane-3-carboxylic acid]
inhibition at 100 µg/mL [1]: 91%
Cell viability (%) (mouse 3T3 fibroblast; 100 μg/ml test compound): 108%

CC(C)CC=C1CCC2(CC1)SC(C)(C)[C@@H](C(=O)O)N2C(=O)CCC(C)C (stereo partly drawn) [Example 44, (3R)-2,2-dimethyl-8-(3-methylbutylidene)-4-(4-methylpentanoyl)-1-thia-4-azaspiro[4.5]decane-3-carboxylic acid]
inhibition at 30 µg/mL [1]: 62%
Cell viability (%) (mouse 3T3 fibroblast; 30 μg/ml test compound): 75%

CC(C)CC=C1CCC2(CC1)SC(CC(=O)OC(C)C)C(=O)N2CC(=O)O (centres unmarked) [Example 47, 2-[2-(2-isopropoxy-2-oxoethyl)-8-(3-methylbutylidene)-3-oxo-1-thia-4-azaspiro[4.5]decan-4-yl]-acetic acid]
inhibition at 30 µg/mL [1]: 47%
Cell viability (%) (mouse 3T3 fibroblast; 30 μg/ml test compound): 83%
